Measured values taken from ChEMBL document CHEMBL2321873, “1-(4-Phenylpiperazin-1-yl)-2-(1H-pyrazol-1-yl)ethanones as novel CCR1 antagonists” (Bioorg Med Chem Lett, 2013).
Activity calls are given as the source filed them. The rule behind the calls is not given here.

Assays:
[1] = target: T1, C-C chemokine receptor type 7 (Homo sapiens) (UniProt P32248); assay: Antagonist activity at CCR7 (unknown origin) assessed as inhibition of calcium flux at 10 uM; format: functional
T1 sequence (whole entry): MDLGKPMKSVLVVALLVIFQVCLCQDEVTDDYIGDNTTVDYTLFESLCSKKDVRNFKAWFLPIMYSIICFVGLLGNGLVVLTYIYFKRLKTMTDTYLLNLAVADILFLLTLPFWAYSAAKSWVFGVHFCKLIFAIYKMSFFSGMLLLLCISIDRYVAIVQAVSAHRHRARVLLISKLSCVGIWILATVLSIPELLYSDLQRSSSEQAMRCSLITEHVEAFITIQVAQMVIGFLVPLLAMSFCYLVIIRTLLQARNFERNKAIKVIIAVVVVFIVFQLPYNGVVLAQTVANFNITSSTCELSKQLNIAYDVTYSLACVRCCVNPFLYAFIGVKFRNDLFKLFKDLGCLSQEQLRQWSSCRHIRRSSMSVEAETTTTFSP

[2] = target: T2, C-C chemokine receptor type 9 (Homo sapiens) (UniProt P51686); assay: Antagonist activity at CCR9 (unknown origin) assessed as inhibition of calcium flux at 10 uM; format: functional
T2 sequence (whole entry): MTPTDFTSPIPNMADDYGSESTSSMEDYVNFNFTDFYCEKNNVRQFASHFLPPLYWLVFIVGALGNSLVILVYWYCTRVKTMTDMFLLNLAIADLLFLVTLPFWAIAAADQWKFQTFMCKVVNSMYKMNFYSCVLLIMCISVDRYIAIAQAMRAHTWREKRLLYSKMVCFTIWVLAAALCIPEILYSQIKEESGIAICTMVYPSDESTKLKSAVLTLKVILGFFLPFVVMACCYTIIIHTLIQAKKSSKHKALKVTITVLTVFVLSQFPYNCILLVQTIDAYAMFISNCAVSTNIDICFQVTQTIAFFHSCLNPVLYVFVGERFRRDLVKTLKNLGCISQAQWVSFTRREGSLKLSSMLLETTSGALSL

Salmonella typhimurium [3] = assay: Genotoxicity in Salmonella typhimurium by Ames test in presence of S9 fractions; format: toxicity, organism-based, S9 Fraction; conditions: salmonella enterica subsp. enterica serovar typhimurium
[4] = target: T3, C-C chemokine receptor type 6 (Homo sapiens) (UniProt P51684); assay: Antagonist activity at CCR6 (unknown origin) assessed as inhibition of calcium flux at 10 uM; format: functional
T3 sequence (whole entry): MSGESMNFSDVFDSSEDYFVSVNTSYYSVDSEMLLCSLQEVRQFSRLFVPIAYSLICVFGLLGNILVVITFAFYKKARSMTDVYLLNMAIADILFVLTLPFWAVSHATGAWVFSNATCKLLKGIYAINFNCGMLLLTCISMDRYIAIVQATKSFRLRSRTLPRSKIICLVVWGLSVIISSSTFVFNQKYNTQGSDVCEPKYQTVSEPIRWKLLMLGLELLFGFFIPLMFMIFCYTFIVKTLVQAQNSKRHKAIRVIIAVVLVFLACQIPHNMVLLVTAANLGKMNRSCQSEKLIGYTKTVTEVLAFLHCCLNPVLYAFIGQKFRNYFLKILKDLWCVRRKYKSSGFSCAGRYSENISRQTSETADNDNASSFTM

[5] = target: T1, C-C chemokine receptor type 7 (Homo sapiens); assay: Binding affinity to CCR7 (unknown origin) at 10 uM by radioligand displacement assay
[6] = target: T4, C-X-C chemokine receptor type 2 (Homo sapiens) (UniProt P25025); assay: Binding affinity to CXCR2 (unknown origin) at 10 uM by radioligand displacement assay
T4 sequence (whole entry): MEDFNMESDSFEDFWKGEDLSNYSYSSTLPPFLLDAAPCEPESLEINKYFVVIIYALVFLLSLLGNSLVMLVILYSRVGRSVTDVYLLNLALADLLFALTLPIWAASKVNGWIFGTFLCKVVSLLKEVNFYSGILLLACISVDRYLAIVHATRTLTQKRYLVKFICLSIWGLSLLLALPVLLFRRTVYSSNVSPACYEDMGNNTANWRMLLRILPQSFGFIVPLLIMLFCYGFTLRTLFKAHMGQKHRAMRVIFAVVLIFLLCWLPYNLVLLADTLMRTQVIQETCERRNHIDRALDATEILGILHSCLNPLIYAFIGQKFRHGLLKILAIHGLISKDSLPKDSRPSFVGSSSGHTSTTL

[7] = target: T5, C-X-C chemokine receptor type 1 (Homo sapiens) (UniProt P25024); assay: Binding affinity to CXCR1 (unknown origin) at 10 uM by radioligand displacement assay
T5 sequence (whole entry): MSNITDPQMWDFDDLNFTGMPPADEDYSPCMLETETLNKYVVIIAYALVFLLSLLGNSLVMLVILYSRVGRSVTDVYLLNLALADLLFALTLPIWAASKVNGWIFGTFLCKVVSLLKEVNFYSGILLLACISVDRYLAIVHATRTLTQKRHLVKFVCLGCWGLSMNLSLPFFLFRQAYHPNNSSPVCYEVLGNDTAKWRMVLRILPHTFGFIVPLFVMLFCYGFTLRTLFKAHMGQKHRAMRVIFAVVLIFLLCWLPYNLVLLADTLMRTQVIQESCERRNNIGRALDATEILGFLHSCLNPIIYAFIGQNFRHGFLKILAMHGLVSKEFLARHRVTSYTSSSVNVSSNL

Cytochrome P450 2D6 = Cytochrome P450 2D6 (Homo sapiens, UniProt P10635); assay: Competitive inhibition of CYP2D6 (unknown origin); format: ADME
[8] = target: T6, C-C chemokine receptor type 10 (Homo sapiens) (UniProt P46092); assay: Antagonist activity at CCR10 (unknown origin) assessed as inhibition of calcium flux at 10 uM; format: functional
T6 sequence (whole entry): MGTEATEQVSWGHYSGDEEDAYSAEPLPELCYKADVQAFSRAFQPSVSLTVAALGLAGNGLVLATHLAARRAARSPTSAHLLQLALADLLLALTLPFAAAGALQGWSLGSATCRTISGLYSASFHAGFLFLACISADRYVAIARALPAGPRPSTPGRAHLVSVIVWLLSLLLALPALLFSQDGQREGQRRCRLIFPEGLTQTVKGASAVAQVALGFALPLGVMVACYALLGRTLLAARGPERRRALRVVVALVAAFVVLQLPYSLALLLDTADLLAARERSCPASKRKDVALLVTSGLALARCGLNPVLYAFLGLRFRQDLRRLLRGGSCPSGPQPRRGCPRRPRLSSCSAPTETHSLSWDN

[9] = target: C-C chemokine receptor type 8 (Homo sapiens) (UniProt P51685); assay: Binding affinity to CCR8 (unknown origin) at 10 uM by radioligand displacement assay
[10] = target: T5, C-X-C chemokine receptor type 1 (Homo sapiens); assay: Antagonist activity at CXCR1 (unknown origin) assessed as inhibition of chemotaxis at 10 uM
[11] = target: C-C chemokine receptor type 2 (Homo sapiens) (UniProt P41597); assay: Antagonist activity at CCR2 (unknown origin) assessed as inhibition of chemotaxis at 10 uM
[12] = target: C-X-C chemokine receptor type 6 (Homo sapiens) (UniProt O00574); assay: Antagonist activity at CXCR6 (unknown origin) assessed as inhibition of chemotaxis at 10 uM
[13] = target: T1, C-C chemokine receptor type 7 (Homo sapiens); assay: Antagonist activity at CCR7 (unknown origin) assessed as inhibition of chemotaxis at 10 uM
Salmonella typhimurium [14] = assay: Genotoxicity in Salmonella typhimurium by Ames test in absence of S9 fractions; format: toxicity, organism-based; conditions: salmonella enterica subsp. enterica serovar typhimurium

Sequence of C-X-C chemokine receptor type 6 (Homo sapiens) (O00574 whole entry, looked up): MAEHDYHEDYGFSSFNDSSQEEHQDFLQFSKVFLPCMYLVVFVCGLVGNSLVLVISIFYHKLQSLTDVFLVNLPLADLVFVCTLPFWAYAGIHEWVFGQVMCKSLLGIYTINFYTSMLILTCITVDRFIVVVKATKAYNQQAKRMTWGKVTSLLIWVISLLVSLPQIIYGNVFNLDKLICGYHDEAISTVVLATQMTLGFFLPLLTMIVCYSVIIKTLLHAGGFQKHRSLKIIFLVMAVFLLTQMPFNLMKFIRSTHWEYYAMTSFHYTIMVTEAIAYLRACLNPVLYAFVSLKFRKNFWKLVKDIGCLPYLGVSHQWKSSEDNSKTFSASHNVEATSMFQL
Sequence of Cytochrome P450 2D6 (P10635 whole entry): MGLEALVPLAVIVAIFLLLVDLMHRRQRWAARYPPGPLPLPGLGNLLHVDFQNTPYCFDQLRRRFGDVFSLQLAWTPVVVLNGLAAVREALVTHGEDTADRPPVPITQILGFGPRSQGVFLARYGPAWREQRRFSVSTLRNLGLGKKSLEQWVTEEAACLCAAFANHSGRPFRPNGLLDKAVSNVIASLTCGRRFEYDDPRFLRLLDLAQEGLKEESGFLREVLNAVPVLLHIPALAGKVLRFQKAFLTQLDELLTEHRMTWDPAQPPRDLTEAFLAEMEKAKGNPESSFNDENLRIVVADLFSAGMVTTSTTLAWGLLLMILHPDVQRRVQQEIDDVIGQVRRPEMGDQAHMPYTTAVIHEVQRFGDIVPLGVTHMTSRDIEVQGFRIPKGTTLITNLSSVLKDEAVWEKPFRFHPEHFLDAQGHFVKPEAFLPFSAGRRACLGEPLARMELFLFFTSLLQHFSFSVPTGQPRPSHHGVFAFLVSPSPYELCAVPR
Sequence of C-C chemokine receptor type 8 (Homo sapiens) (P51685 whole entry): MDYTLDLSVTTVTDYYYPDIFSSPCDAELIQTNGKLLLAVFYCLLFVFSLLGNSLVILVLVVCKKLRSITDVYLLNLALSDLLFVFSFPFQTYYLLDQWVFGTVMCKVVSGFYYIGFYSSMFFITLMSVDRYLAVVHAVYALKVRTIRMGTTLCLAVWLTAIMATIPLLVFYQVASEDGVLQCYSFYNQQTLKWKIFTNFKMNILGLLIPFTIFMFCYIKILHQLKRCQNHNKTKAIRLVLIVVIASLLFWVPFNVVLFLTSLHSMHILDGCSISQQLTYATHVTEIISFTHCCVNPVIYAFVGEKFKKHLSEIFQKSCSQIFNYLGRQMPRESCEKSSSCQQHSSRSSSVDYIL
Sequence of C-C chemokine receptor type 2 (Homo sapiens) (P41597 whole entry, looked up): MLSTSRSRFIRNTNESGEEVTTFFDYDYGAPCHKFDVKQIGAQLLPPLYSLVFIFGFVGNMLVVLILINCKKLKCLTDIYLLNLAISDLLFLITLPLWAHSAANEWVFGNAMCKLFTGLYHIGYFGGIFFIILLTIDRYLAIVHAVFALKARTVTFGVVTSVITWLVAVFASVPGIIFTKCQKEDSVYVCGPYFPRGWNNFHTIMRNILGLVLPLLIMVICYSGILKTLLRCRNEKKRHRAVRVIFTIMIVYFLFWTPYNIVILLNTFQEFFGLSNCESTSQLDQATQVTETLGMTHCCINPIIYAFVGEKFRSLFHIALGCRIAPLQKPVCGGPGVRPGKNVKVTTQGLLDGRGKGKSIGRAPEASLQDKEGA

## COc1cc(N2CCN(C(=O)Cn3nc(C(F)(F)F)c(Cl)c3C)CC2)ccc1Cl
[1]
  inhibition: inactive
[2]
  inhibition: inactive
Salmonella typhimurium [3]
  Activity: Non-toxic
[4]
  inhibition: inactive
[5]
  Activity: inactive
[6]
  Activity: inactive
[7]
  Activity: inactive
Cytochrome P450 2D6
  IC50: > 10 µM
[8]
  inhibition: inactive
[9]
  Activity: inactive
[10]
  inhibition: inactive
[11]
  inhibition: inactive
[12]
  inhibition: inactive
[13]
  inhibition: inactive
Salmonella typhimurium [14]
  Activity: Non-toxic
